Entries after “also recorded” stand apart in the source; their conditions may differ. Activity calls are given as the source filed them. The rule behind the calls is not given here.
System: CCRIS mutagenicity, Ames/micronucleus/aberration tests
Experiment: CCRIS mutagenicity studies
[1] = Test System: AMES SALMONELLA TYPHIMURIUM, Strain/Indicator: TA98, Metabolic Activation: NONE, Method: PREINCUBATION
[2] = Test System: AMES SALMONELLA TYPHIMURIUM, Strain/Indicator: TA100, Metabolic Activation: NONE, Method: PREINCUBATION
[3] = Test System: AMES SALMONELLA TYPHIMURIUM, Strain/Indicator: TA100, Metabolic Activation: RAT LIVER S-9, PHENOBARBITAL AND BETA-NAPHTHOFLAVONE, Method: PREINCUBATION
[4] = Test System: AMES SALMONELLA TYPHIMURIUM, Strain/Indicator: TA1535, Metabolic Activation: NONE, Method: PREINCUBATION
[5] = Test System: AMES SALMONELLA TYPHIMURIUM, Strain/Indicator: TA1535, Metabolic Activation: RAT LIVER S-9, PHENOBARBITAL AND BETA-NAPHTHOFLAVONE, Method: PREINCUBATION
[6] = Test System: AMES SALMONELLA TYPHIMURIUM, Strain/Indicator: TA1537, Metabolic Activation: NONE, Method: PREINCUBATION
[7] = Test System: AMES SALMONELLA TYPHIMURIUM, Strain/Indicator: TA1537, Metabolic Activation: RAT LIVER S-9, PHENOBARBITAL AND BETA-NAPHTHOFLAVONE, Method: PREINCUBATION
[8] = Test System: AMES SALMONELLA TYPHIMURIUM, Strain/Indicator: TA100, Metabolic Activation: NONE, Method: STANDARD PLATE
[9] = Test System: AMES SALMONELLA TYPHIMURIUM, Strain/Indicator: TA100, Metabolic Activation: RAT, LIVER, MICROSOMES, Method: STANDARD PLATE
[10] = Test System: AMES SALMONELLA TYPHIMURIUM, Strain/Indicator: TA98, Metabolic Activation: NONE, Method: STANDARD PLATE

## c1ccc2cc(Nc3ccc(Nc4ccc5ccccc5c4)cc3)ccc2c1
End Point: IN VITRO CHROMOSOMAL ABERRATIONS, Test System: CHINESE HAMSTER LUNG CELLS (CHL), Metabolic Activation: NONE
  mutagenic call: active; positive (structural changes)
End Point: IN VITRO CHROMOSOMAL ABERRATIONS, Test System: CHINESE HAMSTER OVARY CELLS (CHO), Metabolic Activation: NONE
  mutagenic call: inactive; negative
End Point: IN VITRO CHROMOSOMAL ABERRATIONS, Test System: CHINESE HAMSTER OVARY CELLS (CHO), Metabolic Activation: RAT, LIVER, S-9, AROCLOR 1254
  mutagenic call: inactive; negative
End Point: IN VITRO CHROMOSOMAL ABERRATIONS, Test System: CHL CELLS, Metabolic Activation: S-9
  mutagenic call: active; positive (structural changes); weak response
End Point: IN VITRO CHROMOSOMAL ABERRATIONS, Test System: CHO CELLS, Metabolic Activation: S-9
  mutagenic call: active; positive (structural changes)
Test System: AMES SALMONELLA TYPHIMURIUM, Strain/Indicator: TA98, Metabolic Activation: HAMSTER, LIVER, S-9, AROCLOR 1254 (30%), Method: PREINCUBATION
  mutagenic call: active; positive
[1]
  mutagenic call: inactive; negative
Test System: AMES SALMONELLA TYPHIMURIUM, Strain/Indicator: TA98, Metabolic Activation: RAT LIVER S-9, PHENOBARBITAL AND BETA-NAPHTHOFLAVONE, Method: PREINCUBATION
  mutagenic call: inactive; negative
Test System: AMES SALMONELLA TYPHIMURIUM, Strain/Indicator: TA98, Metabolic Activation: RAT, LIVER, S-9, AROCLOR 1254 (30%), Method: PREINCUBATION
  mutagenic call: inactive; negative
Test System: AMES SALMONELLA TYPHIMURIUM, Strain/Indicator: TA100, Metabolic Activation: HAMSTER, LIVER, S-9, AROCLOR 1254 (30%), Method: PREINCUBATION
  mutagenic call: inactive; negative
[2]
  mutagenic call: inactive; negative
[3]
  mutagenic call: inactive; negative
Test System: AMES SALMONELLA TYPHIMURIUM, Strain/Indicator: TA100, Metabolic Activation: RAT, LIVER, S-9, AROCLOR 1254 (30%), Method: PREINCUBATION
  mutagenic call: inactive; negative
[4]
  mutagenic call: inactive; negative
[5]
  mutagenic call: inactive; negative
[6]
  mutagenic call: inactive; negative
[7]
  mutagenic call: inactive; negative
Test System: AMES SALMONELLA TYPHIMURIUM, Strain/Indicator: TA1538, Metabolic Activation: NONE, Method: PREINCUBATION
  mutagenic call: inactive; negative
Test System: AMES SALMONELLA TYPHIMURIUM, Strain/Indicator: TA1538, Metabolic Activation: RAT LIVER S-9, PHENOBARBITAL AND BETA-NAPHTHOFLAVONE, Method: PREINCUBATION
  mutagenic call: inactive; negative
Test System: E.COLI, Strain/Indicator: WP2UVRA, Metabolic Activation: NONE, Method: PREINCUBATION
  mutagenic call: inactive; negative
Test System: E.COLI, Strain/Indicator: WP2UVRA, Metabolic Activation: RAT LIVER S-9, PHENOBARBITAL AND BETA-NAPHTHOFLAVONE, Method: PREINCUBATION
  mutagenic call: inactive; negative

## Cc1c([N+](=O)[O-])c2ccccc2c2ccc3ccccc3c12
[1]
  mutagenic call: inactive; negative
Test System: AMES SALMONELLA TYPHIMURIUM, Strain/Indicator: TA98, Metabolic Activation: RAT, LIVER, S-9, Method: PREINCUBATION
  mutagenic call: active; positive
[2]
  mutagenic call: inactive; negative
[8]
  mutagenic call: inactive; negative
Test System: AMES SALMONELLA TYPHIMURIUM, Strain/Indicator: TA100, Metabolic Activation: RAT, LIVER, S-9, AROCLOR 1254, Method: STANDARD PLATE
  mutagenic call: active; positive
Test System: AMES SALMONELLA TYPHIMURIUM, Strain/Indicator: TA100, Metabolic Activation: RAT, LIVER, S-9, Method: PREINCUBATION
  mutagenic call: active; positive

## CC(C)(C)CC(C)(C)c1ccc(O)cc1
End Point: In vitro chromosomal aberrations, Test System: Chinese hamster lung (CHL/IU) cells, Metabolic Activation: None
  mutagenic call: inactive; negative. toxic at 0.04 mg/ml; also recorded: inactive; negative. toxic at 0.030 and 0.036 mg/ml
End Point: In vitro chromosomal aberrations, Test System: Chinese hamster lung (CHL/IU) cells, Metabolic Activation: Rat, Liver, S9, Phenobarbital and 5,6-benzoflavone
  mutagenic call: active; positive (structural changes and ploidy). toxic at 0.06 mg/ml.
[1]
  mutagenic call: inactive; negative
Test System: AMES SALMONELLA TYPHIMURIUM, Strain/Indicator: TA98, Metabolic Activation: RAT LIVER S-9, PHENOBARBITAL AND BETA-NAPHTHOVLAVONE, Method: PREINCUBATION
  mutagenic call: inactive; negative
[2]
  mutagenic call: inactive; negative
[3]
  mutagenic call: inactive; negative
Test System: AMES SALMONELLA TYPHIMURIUM, Strain/Indicator: TA102, Metabolic Activation: NONE, Method: PREINCUBATION
  mutagenic call: inactive; negative
Test System: AMES SALMONELLA TYPHIMURIUM, Strain/Indicator: TA102, Metabolic Activation: RAT LIVER S-9, PHENOBARBITAL AND BETA-NAPHTHOFLAVONE, Method: PREINCUBATION
  mutagenic call: inactive; negative
Test System: AMES SALMONELLA TYPHIMURIUM, Strain/Indicator: TA104, Metabolic Activation: NONE, Method: PREINCUBATION
  mutagenic call: inactive; negative
Test System: AMES SALMONELLA TYPHIMURIUM, Strain/Indicator: TA104, Metabolic Activation: RAT LIVER S-9, PHENOBARBITAL AND BETA-NAPHTHOFLAVONE, Method: PREINCUBATION
  mutagenic call: inactive; negative
[4]
  mutagenic call: inactive; negative
[5]
  mutagenic call: inactive; negative
[6]
  mutagenic call: inactive; negative
[7]
  mutagenic call: inactive; negative
Test System: E. COLI, Strain/Indicator: WP2UVRA/PKM101, Metabolic Activation: NONE, Method: PREINCUBATION
  mutagenic call: inactive; negative
Test System: E. COLI, Strain/Indicator: WP2UVRA/PKM101, Metabolic Activation: RAT LIVER S-9, PHENOBARBITAL AND BETA-NAPHTHOFLAVONE, Method: PREINCUBATION
  mutagenic call: inactive; negative
Test System: E. COLI, Strain/Indicator: WP2UVRA, Metabolic Activation: NONE, Method: PREINCUBATION
  mutagenic call: inactive; negative
Test System: E. COLI, Strain/Indicator: WP2UVRA, Metabolic Activation: RAT LIVER S-9, PHENOBARBITAL AND BETA-NAPHTHOFLAVONE, Method: PREINCUBATION
  mutagenic call: inactive; negative

## Cc1cccc2c1ccc1c3ccccc3ccc21
Test System: AMES SALMONELLA TYPHIMURIUM, Strain/Indicator: TA100, Metabolic Activation: RAT, LIVER, MICROSOMES, 1-METHYLCHRYSENE, Method: STANDARD PLATE
  mutagenic call: inactive; negative
Test System: AMES SALMONELLA TYPHIMURIUM, Strain/Indicator: TA100, Metabolic Activation: RAT, LIVER, MICROSOMES, AROCLOR 1254, Method: STANDARD PLATE
  mutagenic call: inactive; negative
[9]
  mutagenic call: inactive; negative

## CC(C)CCCC(C)C1CCC2C3CC=C4CC(OCCO)CCC4(C)C3CCC12C (stereo not given)
[10]
  mutagenic call: inactive; negative
Test System: AMES SALMONELLA TYPHIMURIUM, Strain/Indicator: TA98, Metabolic Activation: RAT, LIVER, MICROSOMES, Method: STANDARD PLATE
  mutagenic call: inactive; negative
[8]
  mutagenic call: inactive; negative
[9]
  mutagenic call: inactive; negative

## CN(C)CCN(C)N=O
Test System: AMES SALMONELLA TYPHIMURIUM, Strain/Indicator: TA1535, Metabolic Activation: HAMSTER, LIVER, S-9, Method: STANDARD PLATE
  mutagenic call: active; positive
Test System: AMES SALMONELLA TYPHIMURIUM, Strain/Indicator: TA1535, Metabolic Activation: RAT, LIVER, S-9, Method: STANDARD PLATE
  mutagenic call: inactive; negative

## COC(=O)C12C[C@@]1(C=O)C(C=O)=C[C@@H]1CC(C)(C)C[C@@H]12 (stereo not given in full)
[10]
  mutagenic call: active; positive
[8]
  mutagenic call: active; positive
Test System: AMES SALMONELLA TYPHIMURIUM, Strain/Indicator: TA2637, Metabolic Activation: NONE, Method: STANDARD PLATE
  mutagenic call: active; positive

## C[n+]1cccc2c1C=C[C@H]1O[C@@H]21
[8]
  mutagenic call: inactive; negative
Test System: AMES SALMONELLA TYPHIMURIUM, Strain/Indicator: TA100, Metabolic Activation: RAT, LIVER, S-9, AROCLOR 1254 (20%), Method: STANDARD PLATE
  mutagenic call: active; positive

## O=C(ON(OCc1ccccc1)C(=O)c1ccccc1)c1ccccc1
[8]
  mutagenic call: active; positive

Reference: PubChem BioAssay AID1259407 (Chemical Carcinogenesis Research Information System (CCRIS), 2018)
